The test system of series [1] is immune complex-mediated ulcerative colitis. In words: Immune complex-induced ulcerative colitis model (formalin + IgG immune complexes). Type of series: in vivo, BKA mice. Particulars: prednisolone 5.0 mg/kg i.p. Here is the method:
A mouse model of intestinal inflammation was employed wherein the efficacy of pentigetide in reducing inflammation induced by formalin and complementfixing lgG immune complexes was measured. This model is particularly useful as a model of human ulcerative colitis and shares many clinical and histological functions of the human disease including sensitivity to glucocorticoids, sulfasalazine and 5-aminosalicylic acid (see L. P. Walsh, et al., British J. Pharm. 91:294 (1987); A. Blackham, et al., British J. Pharm. 89:694 (1986); L. D. Walsh and I. J. Zeitlin, British J. Pharm. 92:741 (1987)). The mouse model of intestinal inflammation used in these studies is induced by the exposure of the animals to chemicals which are known to trigger inflammatory processes in both animals and humans. […]
Colonic tissue water content was determined by tissue weight loss on drying of colonic tissues. […]
The response to immune complex alone was determined quantitatively by subtracting the mean value in group B from the mean value in group C. An estimate of the percentage reduction in this response produced by the drug was calculated as: [formula] […] Statistical significance was determined using the non-parametric Mann-Whitney U-test. […]

Series [2] concerns lymphoblastoid tissue culture cells. The settings on record: two trials; U.S. Pat. No. 4,161,522; cited from earlier work.
The test system of series [3] is chronic idiopathic urticaria. The settings on record: human, in vivo.
The subject of series [4] is immunoglobulin Fc receptors. The settings on record: U.S. Pat. No. 4,628,045; cited from earlier work.
Series [5] deals with tetanus toxoid-induced DTH reactions. Details: species or system Balb/C mice. The settings on record: mouse, in vivo.
Series [6] relates to carrageenan-induced inflammation. In words: Carrageenan-induced footpad edema. Type of series: in vivo, Balb/C mice. Particulars: 10 mg/kg s.c. 24 hours prior to carrageenan. On the procedure:
In order to examine the ability of pentigetide to inhibit carrageenan-induced inflammation, female Balb/C mice were injected with 0.025 ml of 1.0% carrageenan solution (type lx carrageenan: Sigma No. C-1013, Lot No. 86F-0698) or saline in the right hind footpad 5 minutes after intravenous tail vein injection of 0.2 ml pentigetide (1.0 mg/kg) or saline solution. Indomethacin (10 mg/kg was used as a positive control and was administered by subcutaneous injection 24 hours prior to carrageenan injection. Footpad volumes were measured using a Buxco plethysmograph over a 6 hour period. Pentigetide produced substantial inhibition of carrageenan-induced inflammation when compared to saline control animals.

The test system of series [7] is sheep erythrocyte (SRBC)-induced DTH reactions. In words: Sheep erythrocyte (SRBC)-induced DTH, footpad volume. Type of series: in vivo, Balb/C mice. Particulars: indomethacin 1.0 mg/kg, day 4; positive control.

Where “and” joins values, the source holds several entries; their conditions need not be identical. Identical values can stand only once. Residues, ends and D or L forms follow the SMILES beside them. No end group written: not given here.

`C[C@]12C=CC(=O)C=C1CC[C@@H]1[C@@H]2[C@@H](O)C[C@@]2(C)[C@H]1CC[C@]2(O)C(=O)CO` [prednisolone]: the “reduction of colonic edema” value in series [1] (three days prior and daily thereafter, p<0.01) is 86.2%. Further, the “reduction of colonic edema (in the colitic sign score paragraph)” value in series [1] (p<0.001) was 93.8%.

Take “Asn-Ser-Asn-Pro-Arg (NSNPR; printed: Asn-Ser-Asn-Pro-Arg)”: the “activity in blocking binding of IgE to lymphoblastoid tissue culture cells” value (“activity in blocking binding of IgE” for short) in series [2] is on record as “lower activity”.

For `N=C(N)NCCC[C@H](NC(=O)[C@@H]1CCCN1C(=O)[C@H](CC(=O)O)NC(=O)[C@H](CO)NC(=O)[C@@H](N)CC(=O)O)C(=O)O` [pentigetide, Asp-Ser-Asp-Pro-Arg] (H-DSDPR-OH), the side effects result in series [3] is listed as “did not experience any side effects”.

With “Asp-Ser-Glu-Pro-Arg (DSEPR; printed: Asp-Ser-Glu-Pro-Arg)”, in series [4], the “blocking of immune complex binding to immunoglobulin Fc receptors” value is “capable of blocking immune complex binding”.

In the case of “Asn-Ser-Asp-Pro-Arg (NSDPR; printed: Asn-Ser-Asp-Pro-Arg)”, the “activity in blocking binding of IgE” value in series [2] is reported as “lower activity”.

With “[-Cys-Ala-Asn-Ser-Asn-Pro-Arg]2 (CANSNPR; also: dimer)”, in series [2], the “activity in blocking binding of IgE” value was 9% and 12%.

Turning to `COc1ccc2c(c1)c(CC(=O)O)c(C)n2C(=O)c1ccc(Cl)cc1` [Indomethacin, indomethacin], the “inhibition (footpad swelling)” value in series [5] is given as 45%; in series [7], 43%. The “Percent Inhibition” value is recorded as -35% in series [6] (1.0 hours after carrageenan injection), -60% in series [6] (2.0 hours after carrageenan injection), -39% in series [6] (4.0 hours after carrageenan injection) and -47% in series [6] (6.0 hours after carrageenan injection).

Values taken from US5912233A, “Methods and peptides for the treatment of non-IgE-mediated diseases” (Dura Pharmaceuticals, Inc., priority 1995, dated 1999).
